In patent EP0354714A2, “Pharmaceutical compositions containing polyaromatic compounds” (HADASSAH MEDICAL ORGANIZATION, priority 1988, dated 1990):

What was measured:
[1] = target: T1, ESb mouse lymphoma heparanase (Mus musculus, UniProt Q6YGZ1); test: Inhibition of heparanase degradation of 35S-labelled ECM; format: biochemical; details: 10 µgr/ml, 24 hours; for Total low-mol-wt. HS fragments released by heparanase (cpm): control 17,756 cpm
T1 construct: endogenous in cells; host or cells: ESb mouse lymphoma cells
T1 sequence (Q6YGZ1 150-535 limits assumed): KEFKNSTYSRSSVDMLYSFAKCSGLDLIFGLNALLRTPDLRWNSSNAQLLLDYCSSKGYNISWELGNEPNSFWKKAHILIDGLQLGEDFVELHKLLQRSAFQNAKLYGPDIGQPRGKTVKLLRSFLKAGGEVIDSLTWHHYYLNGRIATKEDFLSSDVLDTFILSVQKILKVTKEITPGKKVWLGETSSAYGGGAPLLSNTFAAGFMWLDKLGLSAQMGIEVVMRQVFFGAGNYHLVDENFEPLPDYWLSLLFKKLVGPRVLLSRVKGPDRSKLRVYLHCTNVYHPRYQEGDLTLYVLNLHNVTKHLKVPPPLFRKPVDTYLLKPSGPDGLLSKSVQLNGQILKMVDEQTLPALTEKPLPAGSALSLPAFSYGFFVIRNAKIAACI
T1 sequence (Q6YGZ1 28-101 limits assumed): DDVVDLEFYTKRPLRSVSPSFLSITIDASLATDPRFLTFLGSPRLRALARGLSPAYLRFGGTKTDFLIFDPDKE
Experimental: The ability of several of the above mentioned compounds to inhibit lymphoma-cell derived heparanse was tested in the assay system described by Vlodavsky et al. (Cancer Research. 43: 2704-2711 (1983). ³⁵S labled ECM was incubated for 24 hours with ESb mouse lymphoma heparanase in the presence of 10 ugr ml of the indicated compounds. Degradation of the sulfated glycosaminoglycan was followed by gel filtration of the supernatants. Heparanase activity is expressed as the total amount of labled low-molecular-weight fragments released from the ECM substrate. The results are summarized in Table III. Table III

[2] = PTT in rats after oral administration; format: in vivo; details: 1 ml of 10%-20% solution, after 2-4 hours, around 20 sec. at time 0
Description: Moreover, since aluminon can be absorbed through the gastrointestinal tract, it can be used as an orally administratable anticoagulant (as opposed to heparin which has to be given by injection).

[3] = test system: Bovine aortal smooth-muscle cells; test: 3H thymidine incorporation in smooth muscle cells (resting, FGF- or thrombin-stimulated); format: cell-based; details: for H³ thymidine incorporation per well (cpm. mean of duplicates) +FGF: FGF 250 ngr/ml, without aluminon 22,574; for H³ thymidine incorporation per well (cpm. mean of duplicates) +FGF / H³ thymidine incorporation per well (cpm. mean of duplicates) Control / H³ thymidine incorporation per well (cpm. mean of duplicates) +Thrombin: 2 days; for H³ thymidine incorporation per well (cpm. mean of duplicates) Control: resting cells, without aluminon 9.823; for H³ thymidine incorporation per well (cpm. mean of duplicates) +Thrombin: thrombin 10⁻⁶M, without aluminon 54,000
Experimental: Bovine aortal smooth-muscle cells were grown in tissue culture plates in the presence of glucose-rich medium (H-21). The cultures (around 35x10³ cells/well in 24 wells' plates) were initially supplemented with 10% fetal calf serum (FCS) for 2-3 days. The cell nutrition was then replaced by a serum-deprived medium (H-21 plus 0.2% FCS) in order to test the effect of defined growth factors on the proliferation of smooth-muscle cells and their possible inhibition by the compounds with heparin-like activity.
In the following representative experiment, the cells transferred to the serum-deprived medium were grown in the presence of thrombin (10⁻⁶M) or FGF (partially purified from bovine brain, 250 ngr/ml). Various concentrations of aluminon were added to the thrombin or FGF-treated cells and to non-treated control cultures. ³H thymidine was also added to all wells for an incubation period of 2 days. The cultures were then harvested and the ³H thymidine incorporated into DNA was measured.

normal pooled plasma = test: Activated partial thromboplastin time (APTT) in normal pooled plasma; format: biochemical; details: Concentration 0.2 mg/mL; normal pooled plasma alone 25 - 28 sec.
Experimental: Measurement of Activated Partial Thromboplastin Time (APTT)
Utilizing the following procedure, the activated partial thromboplastin time (APTT) was measured for each of comparative compounds A-D:
To an assay cuvette was added 100 ul of normal pooled plasma (George King Biomedical Inc., Kansas) and 100 ul of a solution containing one of the above compounds in aqueous 50 mM Tris hydrochloride at pH 7.5 (0.2 mg of sample in one mL buffer). The sample was placed in a MLA coagulation timer which automatically maintained the sample at 37°C for 2.5 minutes, injected 100 ul of actin activated cephaloplastin reagent, kept 5 minutes, injected 100 ul of 3 mM CaCl, and the clot formation was determined photometrically and the time recorded.

[4] = Minimum concentration that significantly prolongs APTT versus standard buffer solution; format: biochemical; details: concentration at which the polymeric components of the dye significantly prolonged APTT versus standard buffer solution
lipoprotein lipase (LPL) = target: T2, lipoprotein lipase (LPL) (Rattus norvegicus, UniProt Q06000); test: LPL activity in cultured heart cells and their medium after 24 hrs incubation; format: cell-based; details: heart cells; for LPL activity: Total: control 3237; for LPL activity: Medium / LPL activity: Cells: mean±SEM of triplicates; for LPL activity: Medium: control 817±14; for LPL activity: Cells: control 2420±93
T2 construct: endogenous in cells; host or cells: F1 heart cell cultures from newborn rat hearts (mainly non-beating mesenchymal cells)
T2 sequence (Q06000 28-474): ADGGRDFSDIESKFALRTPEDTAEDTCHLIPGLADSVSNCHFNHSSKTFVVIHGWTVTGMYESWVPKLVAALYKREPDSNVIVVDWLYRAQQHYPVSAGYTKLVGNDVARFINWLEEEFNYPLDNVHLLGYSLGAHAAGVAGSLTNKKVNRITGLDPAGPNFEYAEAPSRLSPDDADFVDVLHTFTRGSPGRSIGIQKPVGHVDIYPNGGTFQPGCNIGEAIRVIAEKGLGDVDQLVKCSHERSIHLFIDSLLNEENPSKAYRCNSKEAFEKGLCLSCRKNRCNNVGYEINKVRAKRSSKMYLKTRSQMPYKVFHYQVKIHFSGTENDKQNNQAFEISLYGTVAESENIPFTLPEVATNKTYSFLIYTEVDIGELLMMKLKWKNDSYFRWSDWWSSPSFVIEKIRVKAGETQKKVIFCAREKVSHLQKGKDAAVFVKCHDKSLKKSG
Experimental: The enzyme LPL participate in the process of lipid transfer from the bloodstream to the tissues, LPL is bound to the external surface of cells via its association with cell-membrane glycosaminoglycans. Cultured heart cells is a powerful system in the study of the enzyme turn-over and the exploration of ways to manipulate its level since these cells are active in the biosynthesis of LPL, in addition to the surface binding of the enzyme.
F₁ heart cell cultures were prepared from newborn rat hearts as previously described (Chajek, T. et al., Biochem. Biophys. Acta 528, 456-474 (1978)). They consisted mainly of non-beating mesenchymal cells and were used 8-12 days after their isolation.
The enzyme activity was determined on aliquots of medium and of homogenates of cells which had been released from the petri dish with a rubber policeman in 1 ml of 0.025 M NH₃/NH₄Cl buffer (pH 8.1) containing 1 unit/ml of heparin. The assay system consisted of 0.1 ml of medium or 0.1 ml of cell homogenate ([…]) and 0.1 ml of substrate containing labeled triolein, prepared according to the method of Nilsson-Ehle and Schotz, (J. Lipid Res. 17, 536-541 (1976)). Incubations were carried out at 37°C for 45 min. The reaction was stopped by the addition of methanol/chloroform/heptane (1.4:1.25:1.v/v) and the extraction of fatty acids was performed according to the method of Belfrage and Vaughan (J. Lipid Res. 10, 341-344 (1969), as modified by Nilsson-Ehle and Schotz. Enzyme activity was calculated according to the formula of Nilsson-Ehle and Schotz.

Molecule: O=C(O)C1=CC(=C(c2ccc(O)c(C(=O)O)c2)c2ccc(O)c(C(=O)O)c2)C=CC1=O [Aluminon, aurintricarboxylic acid]
- % Inhibition [1]: 78%
- PTT [2]: > 200 s
- H³ thymidine incorporation per well (cpm. mean of duplicates) +FGF ([3]; Aluminon 0.2 µgr/ml): 22,256 cpm
- H³ thymidine incorporation per well (cpm. mean of duplicates) Control ([3]; Aluminon 0.2 µgr/ml): 8,425 cpm
- H³ thymidine incorporation per well (cpm. mean of duplicates) +Thrombin ([3]; Aluminon 0.2 µgr/ml): 46,857 cpm
- H³ thymidine incorporation per well (cpm. mean of duplicates) +FGF ([3]; Aluminon 2 µgr/ml): 13,089 cpm
- H³ thymidine incorporation per well (cpm. mean of duplicates) Control ([3]; Aluminon 2 µgr/ml): 5,120 cpm
- H³ thymidine incorporation per well (cpm. mean of duplicates) +Thrombin ([3]; Aluminon 2 µgr/ml): 14,064 cpm
- H³ thymidine incorporation per well (cpm. mean of duplicates) +FGF ([3]; Aluminon 10 µgr/ml): 6,846 cpm
- H³ thymidine incorporation per well (cpm. mean of duplicates) Control ([3]; Aluminon 10 µgr/ml): 4,105 cpm
- H³ thymidine incorporation per well (cpm. mean of duplicates) +Thrombin ([3]; Aluminon 10 µgr/ml): 6,877 cpm
- H³ thymidine incorporation per well (cpm. mean of duplicates) +FGF ([3]; Aluminon 20 µgr/ml): 6,745 cpm
- H³ thymidine incorporation per well (cpm. mean of duplicates) Control ([3]; Aluminon 20 µgr/ml): 4,343 cpm
- H³ thymidine incorporation per well (cpm. mean of duplicates) +Thrombin ([3]; Aluminon 20 µgr/ml): 5,705 cpm
- inhibition ([3]; aluminon concentration of 2 µgr/ml (∼4x10⁻⁶M)): More than 40%

Molecule: O=C(O)C1=CC(=C(c2ccc(O)c(C(=O)O)c2)c2ccc(O)c(C(=O)O)c2)C=CC1=O [Comparative Compound C]
- APTT (normal pooled plasma): 28 s

Molecule: CN(C)c1ccc(C(=C2C=CC(=[N+](C)C)C=C2)c2ccc(N(C)C)cc2)cc1 [Crystal Violet]
- Minimum Final Concentration [4]: 8.3 µg/mL

Molecule: CCN(CC)c1ccc(C(=C2C=CC(=[N+](CC)CC)C=C2)c2ccc(N(CC)CC)cc2)cc1.[Cl-] [Ethyl Violet]
- Minimum Final Concentration [4]: 50.0 µg/mL

Molecule: Cc1cc(-c2ccc(/N=N/c3ccc4c(S(=O)(=O)[O-])cc(S(=O)(=O)[O-])c(N)c4c3O)c(C)c2)ccc1/N=N/c1ccc2c(S(=O)(=O)[O-])cc(S(=O)(=O)[O-])c(N)c2c1O.[Na+].[Na+].[Na+].[Na+] [Evan's Blue]
- % Inhibition [1]: 60%
- Total low-mol-wt. HS fragments released by heparanase (cpm) [1]: 6,986 cpm
- % increase in the total (lipoprotein lipase (LPL); Evan's Blue 10⁻³ M): +139.4%
- LPL activity: Total (lipoprotein lipase (LPL); Evan's Blue 10⁻³ M): 7749 m mole FFA/h/dish
- LPL activity: Medium (lipoprotein lipase (LPL); Evan's Blue 10⁻³ M): 6051±435 m mole FFA/h/dish
- LPL activity: Cells (lipoprotein lipase (LPL); Evan's Blue 10⁻³ M): 1698±184 m mole FFA/h/dish
- % increase in the total (lipoprotein lipase (LPL); Evan's Blue 10⁻⁴ M): +61.6%
- LPL activity: Total (lipoprotein lipase (LPL); Evan's Blue 10⁻⁴ M): 5230 m mole FFA/h/dish
- LPL activity: Medium (lipoprotein lipase (LPL); Evan's Blue 10⁻⁴ M): 2783±194 m mole FFA/h/dish
- LPL activity: Cells (lipoprotein lipase (LPL); Evan's Blue 10⁻⁴ M): 2447±48 m mole FFA/h/dish
- % increase in the total (lipoprotein lipase (LPL); Evan's Blue 10⁻⁵ M): +32.5%
- LPL activity: Total (lipoprotein lipase (LPL); Evan's Blue 10⁻⁵ M): 4288 m mole FFA/h/dish
- LPL activity: Medium (lipoprotein lipase (LPL); Evan's Blue 10⁻⁵ M): 1531±182 m mole FFA/h/dish
- LPL activity: Cells (lipoprotein lipase (LPL); Evan's Blue 10⁻⁵ M): 2757±114 m mole FFA/h/dish

Molecule: CCN(Cc1cccc(S(=O)(=O)O)c1)c1ccc(C(=C2C=CC(=[N+](CC)Cc3cccc(S(=O)(=O)O)c3)C=C2)c2ccc(O)cc2S(=O)(=O)[O-])cc1 [Fast Green]
- % Inhibition [1]: 32%
- Total low-mol-wt. HS fragments released by heparanase (cpm) [1]: 12,139 cpm

Molecule: CN(C)c1ccc(C(=C2C=CC(=[N+](C)C)C=C2)c2ccccc2)cc1 [Malachite Green]
- Minimum Final Concentration [4]: 150.0 µg/mL

Molecule: O=S(=O)(O)c1ccc(N=C2C=CC(=C(c3ccc(Nc4ccc(S(=O)(=O)O)cc4)cc3)c3ccc(Nc4ccc(S(=O)(=O)O)cc4)cc3)C=C2)cc1 [Methyl Blue]
- % Inhibition [1]: 23%
- Total low-mol-wt. HS fragments released by heparanase (cpm) [1]: 13,676 cpm
- Minimum Final Concentration [4]: 100.0 µg/mL

Molecule: CN(C)c1ccc(C(=C2C=CC(=[N+](C)C)C=C2)c2ccc([N+](C)(C)C)cc2)cc1.[Cl-].[Cl-] [Methyl Green]
- Minimum Final Concentration [4]: 50.0 µg/mL

Molecule: Cc1cc(C(=C2C=CC(=N)C=C2)c2ccc(N)cc2)ccc1N [Rosaniline Chloride]
- Minimum Final Concentration [4]: 12.5 µg/mL

Molecule: Cc1cc2nc3cc(C)c(N)cc3[n+](-c3ccccc3)c2cc1N.[Cl-] [Safranin O]
- Minimum Final Concentration [4]: 150.0 µg/mL

Molecule: Aniline Blue
- Minimum Final Concentration [4]: 150.0 µg/mL

Molecule: Basic Fuchsin
- Minimum Final Concentration [4]: 50.0 µg/mL

Molecule: Brilliant Cresyl Blue
- Minimum Final Concentration [4]: 150.0 µg/mL

Molecule: Methyl Violet
- Minimum Final Concentration [4]: 75.0 µg/mL
